Experimental findings from ChEMBL document CHEMBL1140940, “Pyrido[2,3-d]pyrimidin-5-ones: a novel class of antiinflammatory macrophage colony-stimulating factor-1 receptor inhibitors” (J Med Chem, 2009) are described below.

Each structure is given as a SMILES string.

Series [1] deals with Macrophage colony-stimulating factor 1 receptor (Homo sapiens, UniProt P07333).
Series [2] is described as follows: Oral bioavailability in Sprague-Dawley rat at 10 mg/kg. It counts as ADME, organism-based. Conditions: in vivo.
Series [3] in a line: Clearance in Sprague-Dawley rat at 2 mg/kg, iv. Conditions: in vivo. On the set-up: dose 2 mg/kg, route intravenous. It is filed as ADME, organism-based.
Series [4] in a line: Cmax in Sprague-Dawley rat at 10 mg/kg, po. It is filed as ADME, organism-based. On the set-up: dose 10 mg/kg, route oral. Conditions: in vivo.
Series [5] is described as follows: Volume of distribution at steady state in Sprague-Dawley rat at 2 mg/kg, iv. It is filed as ADME, organism-based. Set-up: dose 2 mg/kg, route intravenous. Conditions: in vivo, read-out: Vdss.
Series [6] can be described thus: Half life in Sprague-Dawley rat at 10 mg/kg, po. It counts as ADME, organism-based. Set-up: dose 10 mg/kg, route oral. The settings on record: in vivo.
A short description of series [7]: Metabolic stability in rat liver microsomes after 10 mins. The settings on record: read-out: Stability. It is filed as ADME, Microsome. For orientation: Microsomes from liver hold many membrane-bound enzymes, among them those of drug oxidation.
Series [8] is described as follows: Half life in Sprague-Dawley rat at 2 mg/kg, iv. It is filed as ADME, organism-based. Set-up: dose 2 mg/kg, route intravenous. The settings on record: in vivo.
A short description of series [9]: Metabolic stability in human liver microsomes after 10 mins. It counts as ADME, Microsome. The settings on record: read-out: Stability.

Macrophage colony-stimulating factor 1 receptor, sequence (P07333 whole entry): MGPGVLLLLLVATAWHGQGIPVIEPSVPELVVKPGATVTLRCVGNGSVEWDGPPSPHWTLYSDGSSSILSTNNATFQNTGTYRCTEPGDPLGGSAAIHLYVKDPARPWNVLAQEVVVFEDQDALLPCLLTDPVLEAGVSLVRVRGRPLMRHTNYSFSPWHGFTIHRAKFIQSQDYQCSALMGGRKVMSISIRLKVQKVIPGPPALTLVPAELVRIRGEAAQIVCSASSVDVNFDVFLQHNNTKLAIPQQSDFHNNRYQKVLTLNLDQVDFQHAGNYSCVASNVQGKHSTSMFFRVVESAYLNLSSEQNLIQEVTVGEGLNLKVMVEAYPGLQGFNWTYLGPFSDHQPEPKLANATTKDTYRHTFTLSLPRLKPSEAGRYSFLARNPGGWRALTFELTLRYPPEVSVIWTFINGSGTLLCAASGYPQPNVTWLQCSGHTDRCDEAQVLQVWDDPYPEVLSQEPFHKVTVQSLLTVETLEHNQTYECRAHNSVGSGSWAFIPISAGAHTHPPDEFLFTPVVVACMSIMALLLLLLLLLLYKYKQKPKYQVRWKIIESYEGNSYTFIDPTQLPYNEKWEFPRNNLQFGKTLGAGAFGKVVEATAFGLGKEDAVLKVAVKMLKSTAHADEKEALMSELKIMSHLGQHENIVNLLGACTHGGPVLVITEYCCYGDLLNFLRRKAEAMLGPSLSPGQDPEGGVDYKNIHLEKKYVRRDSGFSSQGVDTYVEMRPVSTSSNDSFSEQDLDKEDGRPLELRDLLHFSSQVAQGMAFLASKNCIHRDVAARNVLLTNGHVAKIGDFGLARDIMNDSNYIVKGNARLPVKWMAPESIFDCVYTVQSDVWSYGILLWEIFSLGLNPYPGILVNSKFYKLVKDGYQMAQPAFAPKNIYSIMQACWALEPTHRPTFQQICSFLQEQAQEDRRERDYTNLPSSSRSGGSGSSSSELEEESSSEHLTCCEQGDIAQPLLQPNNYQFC

`CNC(=O)c1cn(-c2ccc3c(c2)CCC3)c2nc(Nc3ccc(CCN4CCOCC4)cc3)ncc2c1=O`: the concentration for half-maximal inhibition (IC50) in series [1] stood at 1.4 nM. The bioavailability in series [2] is 4%. The compound further showed a clearance in series [3] of 47 mL/min/kg. In series [4], this compound returned a Cmax of 130 nM. The Vd in series [5] was determined as 2.6 L/kg. Also, the results for the half-life in series [6] and in series [8] were 1.8 h and 0.7 h, respectively. Also, the remaining at 10 min in series [7] was found to be 100%.
`CONC(=O)c1cn(-c2ccc3c(c2)CCC3)c2nc(Nc3ccc(CCN4CCNC(=O)C4)cc3)ncc2c1=O` yielded a bioavailability in series [2] of 3%. The same compound came in with a clearance in [3] of 10 mL/min/kg. The compound also displayed a Cmax in [4] of 80 nM. Besides, in [5], the Vd was 0.8 L/kg. Also, the half-life in series [6] was 9.7 h; in series [8], 6 h. The results for the remaining at 10 min in [7] and in series [9] were 69% and 35%, respectively.

As a reminder, the IC50 is the concentration at which inhibition is half-maximal. A low value points to greater potency. The term bioavailability denotes dose-corrected exposure relative to a reference, in per cent. The low end stands for poor availability, the high end for good availability. The clearance is the volume of plasma or blood freed of the substance per unit of time. A high value points to a high capacity for elimination. By Cmax is commonly meant the highest concentration seen after dosing. For orientation: half-life means the time needed for the level to fall by half in the phase considered. Read a high half-life as slow decline.
